Measurements taken from ChEMBL document CHEMBL5212743, “Selectivity Literature for EUbOPEN Chemogenomics Library wave 3” (2023).
Values belong to the compound of their own block, whether it stands above or below them.

Key:
[1] = molecular target: Serine/threonine-protein kinase Nek5 (Homo sapiens) (UniProt Q6P3R8); assay: Selectivity interaction (KinomeScan (DiscoverX)) EUB0000339a NEK5; settings: at 1 µM
[2] = molecular target: T1, Myosin-IIIb (Homo sapiens) (UniProt Q8WXR4); assay: Selectivity interaction (KinomeScan (DiscoverX)) EUB0000339a MYO3B; settings: at 1 µM
T1 sequence (whole entry): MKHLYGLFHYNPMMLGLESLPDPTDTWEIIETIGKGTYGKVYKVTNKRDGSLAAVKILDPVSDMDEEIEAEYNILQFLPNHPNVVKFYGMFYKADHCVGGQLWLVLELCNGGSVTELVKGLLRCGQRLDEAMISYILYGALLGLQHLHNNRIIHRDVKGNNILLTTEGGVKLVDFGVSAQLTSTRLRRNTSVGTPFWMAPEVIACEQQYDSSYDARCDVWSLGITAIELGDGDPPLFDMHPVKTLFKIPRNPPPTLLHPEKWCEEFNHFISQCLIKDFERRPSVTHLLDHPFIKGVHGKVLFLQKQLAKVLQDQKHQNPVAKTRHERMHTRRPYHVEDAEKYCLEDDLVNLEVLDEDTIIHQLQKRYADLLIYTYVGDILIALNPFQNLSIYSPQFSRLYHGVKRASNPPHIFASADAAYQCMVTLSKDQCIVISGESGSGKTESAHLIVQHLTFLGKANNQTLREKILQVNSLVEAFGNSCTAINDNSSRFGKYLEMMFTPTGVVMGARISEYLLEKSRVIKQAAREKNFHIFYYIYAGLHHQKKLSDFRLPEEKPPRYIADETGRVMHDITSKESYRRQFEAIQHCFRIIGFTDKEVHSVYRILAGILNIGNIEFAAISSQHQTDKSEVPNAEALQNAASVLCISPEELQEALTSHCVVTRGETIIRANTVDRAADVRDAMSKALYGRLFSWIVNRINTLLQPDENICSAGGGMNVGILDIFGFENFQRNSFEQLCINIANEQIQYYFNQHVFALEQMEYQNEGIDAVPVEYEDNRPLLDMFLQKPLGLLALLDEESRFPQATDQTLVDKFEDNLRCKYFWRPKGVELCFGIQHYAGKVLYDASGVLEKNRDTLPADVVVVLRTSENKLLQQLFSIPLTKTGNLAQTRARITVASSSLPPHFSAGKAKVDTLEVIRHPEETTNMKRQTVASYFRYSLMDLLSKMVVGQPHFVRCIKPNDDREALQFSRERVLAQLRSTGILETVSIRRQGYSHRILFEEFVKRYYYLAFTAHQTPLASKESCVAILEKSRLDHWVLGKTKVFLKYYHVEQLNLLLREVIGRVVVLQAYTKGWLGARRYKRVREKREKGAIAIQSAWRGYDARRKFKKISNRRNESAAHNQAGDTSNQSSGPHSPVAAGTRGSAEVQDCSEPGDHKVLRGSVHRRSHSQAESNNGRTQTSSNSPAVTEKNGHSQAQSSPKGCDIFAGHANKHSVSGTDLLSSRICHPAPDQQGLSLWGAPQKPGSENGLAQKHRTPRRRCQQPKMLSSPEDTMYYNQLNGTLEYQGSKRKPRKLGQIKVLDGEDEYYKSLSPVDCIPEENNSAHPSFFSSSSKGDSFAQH

[3] = molecular target: Receptor-interacting serine/threonine-protein kinase 1 (Homo sapiens) (UniProt Q13546); assay: Selectivity interaction (KinomeScan (DiscoverX)) EUB0000339a RIPK1; settings: at 1 µM
[4] = molecular target: Dual specificity tyrosine-phosphorylation-regulated kinase 1B (Homo sapiens, UniProt Q9Y463); assay: Selectivity interaction (KinomeScan (DiscoverX)) EUB0000736a DYRK1B; settings: at 1 µM
Chain of Dual specificity tyrosine-phosphorylation-regulated kinase 1B (Q9Y463 whole entry, looked up): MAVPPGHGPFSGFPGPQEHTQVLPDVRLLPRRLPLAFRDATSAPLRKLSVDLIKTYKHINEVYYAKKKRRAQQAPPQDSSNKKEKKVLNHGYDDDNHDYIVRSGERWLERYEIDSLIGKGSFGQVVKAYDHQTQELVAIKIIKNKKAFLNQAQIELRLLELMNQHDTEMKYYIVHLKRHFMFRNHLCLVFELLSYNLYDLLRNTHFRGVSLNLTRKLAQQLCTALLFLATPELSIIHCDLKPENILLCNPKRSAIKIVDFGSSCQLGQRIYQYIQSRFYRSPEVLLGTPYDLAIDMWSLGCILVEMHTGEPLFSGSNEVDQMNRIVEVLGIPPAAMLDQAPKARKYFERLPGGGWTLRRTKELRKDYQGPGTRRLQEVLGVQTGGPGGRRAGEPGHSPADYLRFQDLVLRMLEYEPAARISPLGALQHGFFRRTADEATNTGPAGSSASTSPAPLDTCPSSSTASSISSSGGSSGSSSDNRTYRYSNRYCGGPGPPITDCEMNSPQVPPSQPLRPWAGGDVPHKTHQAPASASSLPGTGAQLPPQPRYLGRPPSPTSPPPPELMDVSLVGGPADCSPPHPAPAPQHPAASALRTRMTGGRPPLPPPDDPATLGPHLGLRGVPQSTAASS

[5] = system: Tyrosine-protein kinase ABL1 (Homo sapiens), P00519 [M351T]; assay: (§1) Selectivity interaction (KinomeScan (DiscoverX)) EUB0000736a ABL1; settings: at 1 µM
[6] = system: Tyrosine-protein kinase ABL1 (Homo sapiens), P00519 [T315I]; assay: as §1; settings: at 10 µM
[7] = molecular target: Ephrin type-A receptor 4 (Homo sapiens) (UniProt P54764); assay: Selectivity interaction (KinomeScan (DiscoverX)) EUB0000736a EPHA4; settings: at 1 µM
Chain of Ephrin type-A receptor 4 (Homo sapiens) (P54764 whole entry): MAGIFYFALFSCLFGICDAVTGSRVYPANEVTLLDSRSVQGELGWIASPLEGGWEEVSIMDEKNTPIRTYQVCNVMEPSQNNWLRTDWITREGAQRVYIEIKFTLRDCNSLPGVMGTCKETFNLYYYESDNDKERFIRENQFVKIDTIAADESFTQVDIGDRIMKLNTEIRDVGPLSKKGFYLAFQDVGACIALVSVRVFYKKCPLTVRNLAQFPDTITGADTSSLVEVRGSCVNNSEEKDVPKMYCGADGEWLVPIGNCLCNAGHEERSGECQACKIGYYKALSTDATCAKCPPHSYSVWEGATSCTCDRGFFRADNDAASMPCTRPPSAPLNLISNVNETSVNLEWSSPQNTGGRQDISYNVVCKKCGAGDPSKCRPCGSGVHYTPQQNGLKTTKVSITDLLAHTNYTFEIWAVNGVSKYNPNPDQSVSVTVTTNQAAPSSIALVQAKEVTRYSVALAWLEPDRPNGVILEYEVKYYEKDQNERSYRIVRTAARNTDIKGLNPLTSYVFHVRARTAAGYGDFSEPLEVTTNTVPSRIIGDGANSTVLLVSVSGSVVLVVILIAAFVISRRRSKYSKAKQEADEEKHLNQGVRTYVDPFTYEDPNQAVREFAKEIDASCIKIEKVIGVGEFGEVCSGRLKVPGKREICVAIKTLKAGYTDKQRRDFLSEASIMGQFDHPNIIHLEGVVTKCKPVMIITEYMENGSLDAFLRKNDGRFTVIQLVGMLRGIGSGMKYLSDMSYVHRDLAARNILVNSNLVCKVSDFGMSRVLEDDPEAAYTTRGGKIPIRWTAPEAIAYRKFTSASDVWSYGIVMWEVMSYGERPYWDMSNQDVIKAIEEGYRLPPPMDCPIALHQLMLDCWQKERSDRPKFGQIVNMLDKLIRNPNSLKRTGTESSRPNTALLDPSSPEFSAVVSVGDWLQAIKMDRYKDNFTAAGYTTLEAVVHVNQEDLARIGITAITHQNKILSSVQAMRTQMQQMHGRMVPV

[8] = molecular target: Ephrin type-B receptor 3 (Homo sapiens) (UniProt P54753); assay: Selectivity interaction (KinomeScan (DiscoverX)) EUB0000736a EPHB3; settings: at 1 µM
Chain of Ephrin type-B receptor 3 (Homo sapiens) (P54753 whole entry): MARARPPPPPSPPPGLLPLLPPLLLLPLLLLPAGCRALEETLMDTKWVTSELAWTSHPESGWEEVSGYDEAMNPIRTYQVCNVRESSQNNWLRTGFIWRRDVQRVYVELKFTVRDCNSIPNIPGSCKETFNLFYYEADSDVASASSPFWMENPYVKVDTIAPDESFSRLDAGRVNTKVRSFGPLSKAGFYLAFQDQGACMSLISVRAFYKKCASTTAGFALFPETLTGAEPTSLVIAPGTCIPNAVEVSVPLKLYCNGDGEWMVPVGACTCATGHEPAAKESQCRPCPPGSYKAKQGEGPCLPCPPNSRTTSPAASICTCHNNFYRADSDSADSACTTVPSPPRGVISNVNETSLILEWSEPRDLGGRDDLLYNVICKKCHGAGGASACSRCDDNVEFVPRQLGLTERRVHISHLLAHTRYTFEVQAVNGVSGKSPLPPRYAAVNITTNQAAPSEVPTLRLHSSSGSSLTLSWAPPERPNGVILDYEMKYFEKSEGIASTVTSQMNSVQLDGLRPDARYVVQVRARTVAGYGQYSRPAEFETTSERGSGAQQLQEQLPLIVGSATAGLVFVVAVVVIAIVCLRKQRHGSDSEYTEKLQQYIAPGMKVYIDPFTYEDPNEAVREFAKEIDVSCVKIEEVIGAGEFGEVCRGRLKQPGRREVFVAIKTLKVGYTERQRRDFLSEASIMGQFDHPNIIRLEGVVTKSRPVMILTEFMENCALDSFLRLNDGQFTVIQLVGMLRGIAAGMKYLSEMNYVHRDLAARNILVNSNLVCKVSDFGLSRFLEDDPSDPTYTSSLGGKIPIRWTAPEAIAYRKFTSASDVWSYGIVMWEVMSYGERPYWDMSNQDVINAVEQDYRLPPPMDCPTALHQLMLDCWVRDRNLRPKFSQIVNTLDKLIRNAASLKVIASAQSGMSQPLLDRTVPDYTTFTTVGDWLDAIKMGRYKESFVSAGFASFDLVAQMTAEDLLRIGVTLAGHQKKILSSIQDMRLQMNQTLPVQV

[9] = molecular target: Ephrin type-A receptor 6 (Homo sapiens) (UniProt Q9UF33); assay: Selectivity interaction (KinomeScan (DiscoverX)) EUB0000736a EPHA6; settings: at 1 µM
[10] = molecular target: Histamine H1 receptor (Homo sapiens, UniProt P35367); assay: Selectivity interaction (GPCR panel (PDSP screen)) EUB0000350a HRH1; settings: at 10 µM
[11] = molecular target: Maternal embryonic leucine zipper kinase (Homo sapiens) (UniProt Q14680); assay: Selectivity interaction (KinomeScan (DiscoverX)) EUB0000332a MELK; settings: at 1 µM
[12] = molecular target: SRSF protein kinase 2 (Homo sapiens) (UniProt P78362); assay: Selectivity interaction (KinomeScan (DiscoverX)) EUB0000332a SRPK2; settings: at 1 µM
[13] = molecular target: Megakaryocyte-associated tyrosine-protein kinase (Homo sapiens) (UniProt P42679); assay: Selectivity interaction (KinomeScan (DiscoverX)) EUB0000332a MATK; settings: at 1 µM
[14] = molecular target: T2, G protein-coupled receptor kinase 3 (Homo sapiens) (UniProt P35626); assay: Selectivity interaction (KinomeScan (DiscoverX)) EUB0000332a ADRBK2; settings: at 1 µM
T2 sequence (whole entry): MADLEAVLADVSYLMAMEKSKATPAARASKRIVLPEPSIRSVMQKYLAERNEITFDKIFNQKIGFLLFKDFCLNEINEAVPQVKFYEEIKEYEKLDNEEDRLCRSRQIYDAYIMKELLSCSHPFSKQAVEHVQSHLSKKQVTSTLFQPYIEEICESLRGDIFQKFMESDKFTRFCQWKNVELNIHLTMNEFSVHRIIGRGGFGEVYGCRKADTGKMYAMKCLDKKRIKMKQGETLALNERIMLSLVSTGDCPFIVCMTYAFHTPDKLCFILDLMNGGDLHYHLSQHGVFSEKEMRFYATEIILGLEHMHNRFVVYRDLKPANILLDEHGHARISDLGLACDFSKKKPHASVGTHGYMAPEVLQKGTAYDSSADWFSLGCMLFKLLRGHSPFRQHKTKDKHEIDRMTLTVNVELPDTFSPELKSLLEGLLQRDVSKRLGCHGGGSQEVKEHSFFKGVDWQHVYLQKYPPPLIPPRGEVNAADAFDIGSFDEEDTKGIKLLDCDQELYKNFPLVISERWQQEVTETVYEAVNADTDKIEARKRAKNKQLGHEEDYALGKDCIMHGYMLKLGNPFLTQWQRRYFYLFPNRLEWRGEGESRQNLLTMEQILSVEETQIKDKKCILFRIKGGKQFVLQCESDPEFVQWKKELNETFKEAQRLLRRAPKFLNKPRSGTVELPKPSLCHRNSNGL

[15] = molecular target: Mitogen-activated protein kinase 9 (Homo sapiens, UniProt P45984); assay: Selectivity interaction (KinomeScan (DiscoverX)) EUB0000634a MAPK9; settings: at 1 µM
Chain of Mitogen-activated protein kinase 9 (P45984 whole entry, looked up): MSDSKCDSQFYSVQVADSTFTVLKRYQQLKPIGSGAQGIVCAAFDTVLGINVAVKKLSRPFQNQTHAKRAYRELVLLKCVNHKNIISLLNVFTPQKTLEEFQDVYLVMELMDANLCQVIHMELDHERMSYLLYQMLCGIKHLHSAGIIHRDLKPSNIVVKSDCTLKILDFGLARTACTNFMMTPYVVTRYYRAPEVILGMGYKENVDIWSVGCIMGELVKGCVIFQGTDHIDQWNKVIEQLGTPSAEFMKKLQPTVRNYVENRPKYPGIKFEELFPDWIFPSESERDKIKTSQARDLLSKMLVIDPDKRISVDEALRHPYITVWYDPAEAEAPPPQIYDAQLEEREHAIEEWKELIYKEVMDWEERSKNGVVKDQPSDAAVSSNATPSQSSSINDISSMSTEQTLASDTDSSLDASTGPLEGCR

[16] = molecular target: Mast/stem cell growth factor receptor Kit (Homo sapiens, UniProt P10721); assay: Selectivity interaction (KinomeScan (DiscoverX)) EUB0000634a KIT; settings: at 1 µM
[17] = molecular target: Platelet-derived growth factor receptor beta (Homo sapiens, UniProt P09619); assay: Selectivity interaction (KinomeScan (DiscoverX)) EUB0000634a PDGFRB; settings: at 1 µM
[18] = molecular target: T3, Homeodomain-interacting protein kinase 4 (Homo sapiens) (UniProt Q8NE63); assay: Selectivity interaction (KinomeScan (DiscoverX)) EUB0000263b HIPK4; settings: at 1 µM
T3 sequence (whole entry): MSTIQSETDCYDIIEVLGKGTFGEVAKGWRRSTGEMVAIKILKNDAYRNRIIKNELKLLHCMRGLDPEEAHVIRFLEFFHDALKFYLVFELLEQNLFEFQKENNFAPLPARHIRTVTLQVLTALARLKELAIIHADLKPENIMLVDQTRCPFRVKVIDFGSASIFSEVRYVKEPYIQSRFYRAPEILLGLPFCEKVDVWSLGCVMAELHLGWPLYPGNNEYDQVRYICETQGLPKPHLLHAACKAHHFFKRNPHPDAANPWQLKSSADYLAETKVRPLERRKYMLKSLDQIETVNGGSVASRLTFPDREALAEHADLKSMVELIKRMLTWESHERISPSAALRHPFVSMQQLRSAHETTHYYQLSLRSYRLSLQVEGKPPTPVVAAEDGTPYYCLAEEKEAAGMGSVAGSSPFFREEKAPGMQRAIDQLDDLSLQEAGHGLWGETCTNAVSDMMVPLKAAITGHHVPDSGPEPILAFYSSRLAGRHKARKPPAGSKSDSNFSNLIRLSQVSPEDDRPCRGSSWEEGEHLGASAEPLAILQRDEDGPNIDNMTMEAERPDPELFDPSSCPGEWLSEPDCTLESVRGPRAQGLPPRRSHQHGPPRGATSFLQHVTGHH

[19] = molecular target: T4, Mitogen-activated protein kinase 12 (Homo sapiens) (UniProt P53778); assay: Selectivity interaction (KinomeScan (DiscoverX)) EUB0000263b MAPK12; settings: at 1 µM
T4 sequence (whole entry): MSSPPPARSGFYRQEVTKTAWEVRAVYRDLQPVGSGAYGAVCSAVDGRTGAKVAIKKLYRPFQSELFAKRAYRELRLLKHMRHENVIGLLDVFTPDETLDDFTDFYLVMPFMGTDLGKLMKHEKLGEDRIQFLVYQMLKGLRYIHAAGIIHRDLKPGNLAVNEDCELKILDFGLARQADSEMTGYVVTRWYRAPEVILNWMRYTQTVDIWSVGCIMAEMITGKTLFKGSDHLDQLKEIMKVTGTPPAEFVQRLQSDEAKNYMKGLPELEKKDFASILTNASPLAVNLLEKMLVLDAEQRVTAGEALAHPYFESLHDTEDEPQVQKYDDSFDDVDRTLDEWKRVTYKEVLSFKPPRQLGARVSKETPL

[20] = molecular target: Voltage-dependent L-type calcium channel subunit alpha-1S (Homo sapiens) (UniProt Q13698); assay: Selectivity interaction (CEREP panel (Eurofins)) EUB0000263b CACNA1S; settings: at 10 µM
Chain of Voltage-dependent L-type calcium channel subunit alpha-1S (Homo sapiens) (Q13698 whole entry): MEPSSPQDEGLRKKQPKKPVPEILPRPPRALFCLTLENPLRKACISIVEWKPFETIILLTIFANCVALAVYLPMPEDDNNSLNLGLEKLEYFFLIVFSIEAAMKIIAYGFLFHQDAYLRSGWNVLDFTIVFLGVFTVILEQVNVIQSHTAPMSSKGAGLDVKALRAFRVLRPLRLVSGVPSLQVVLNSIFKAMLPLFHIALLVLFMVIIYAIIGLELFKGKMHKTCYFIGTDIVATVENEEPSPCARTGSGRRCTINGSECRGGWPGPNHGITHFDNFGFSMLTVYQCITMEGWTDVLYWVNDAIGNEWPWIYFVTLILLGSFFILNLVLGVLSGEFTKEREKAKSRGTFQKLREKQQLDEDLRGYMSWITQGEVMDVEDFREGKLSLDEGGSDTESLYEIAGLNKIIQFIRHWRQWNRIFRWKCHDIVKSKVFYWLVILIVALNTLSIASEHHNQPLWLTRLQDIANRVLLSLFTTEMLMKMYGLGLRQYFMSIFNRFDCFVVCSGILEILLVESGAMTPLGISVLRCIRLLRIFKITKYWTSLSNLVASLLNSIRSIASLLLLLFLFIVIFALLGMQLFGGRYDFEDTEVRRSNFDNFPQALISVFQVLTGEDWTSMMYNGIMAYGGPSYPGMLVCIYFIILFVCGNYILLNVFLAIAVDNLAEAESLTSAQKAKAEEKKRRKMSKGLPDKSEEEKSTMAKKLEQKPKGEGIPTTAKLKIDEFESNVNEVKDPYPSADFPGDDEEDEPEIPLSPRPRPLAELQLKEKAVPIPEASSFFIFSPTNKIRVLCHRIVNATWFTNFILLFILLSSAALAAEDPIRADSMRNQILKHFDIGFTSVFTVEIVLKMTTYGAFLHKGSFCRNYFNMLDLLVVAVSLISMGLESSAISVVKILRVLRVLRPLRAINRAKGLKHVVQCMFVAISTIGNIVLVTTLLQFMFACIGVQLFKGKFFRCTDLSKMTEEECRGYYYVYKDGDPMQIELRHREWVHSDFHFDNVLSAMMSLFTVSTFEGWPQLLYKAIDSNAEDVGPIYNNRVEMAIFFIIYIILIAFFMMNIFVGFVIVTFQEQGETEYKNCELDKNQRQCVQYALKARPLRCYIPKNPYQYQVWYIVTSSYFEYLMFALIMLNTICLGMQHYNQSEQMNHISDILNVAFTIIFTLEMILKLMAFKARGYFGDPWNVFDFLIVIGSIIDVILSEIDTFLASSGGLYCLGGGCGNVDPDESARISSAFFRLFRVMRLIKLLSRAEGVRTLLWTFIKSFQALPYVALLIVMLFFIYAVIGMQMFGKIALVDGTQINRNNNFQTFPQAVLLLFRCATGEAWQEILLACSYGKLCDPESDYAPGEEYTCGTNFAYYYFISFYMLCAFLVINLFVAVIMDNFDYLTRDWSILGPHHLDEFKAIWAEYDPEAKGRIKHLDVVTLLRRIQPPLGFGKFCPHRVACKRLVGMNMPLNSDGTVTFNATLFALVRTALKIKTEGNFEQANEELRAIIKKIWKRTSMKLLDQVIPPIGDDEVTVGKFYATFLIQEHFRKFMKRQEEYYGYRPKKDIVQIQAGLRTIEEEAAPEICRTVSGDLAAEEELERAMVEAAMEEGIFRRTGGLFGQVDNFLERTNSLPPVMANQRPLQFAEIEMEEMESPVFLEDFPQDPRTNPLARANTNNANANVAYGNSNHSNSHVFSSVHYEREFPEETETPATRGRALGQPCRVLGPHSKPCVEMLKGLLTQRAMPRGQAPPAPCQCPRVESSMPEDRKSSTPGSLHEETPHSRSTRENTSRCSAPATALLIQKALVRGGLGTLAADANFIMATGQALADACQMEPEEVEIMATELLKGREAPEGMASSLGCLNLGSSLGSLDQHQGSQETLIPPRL

[21] = molecular target: Voltage-dependent L-type calcium channel subunit alpha-1S (Homo sapiens) (UniProt Q13698); assay: Selectivity interaction (Enzyme panel (Eurofins-Cerep)) EUB0000263b CACNA1S; settings: at 10 µM

Compound: CCCOc1ccc([C@@H]2[C@@H](C(=O)O)[C@H](c3ccc4c(c3)OCO4)CN2CC(=O)Nc2c(CC)cccc2CC)cc1
- % of control [1]: 55%
- % of control [2]: 52%
- % of control [3]: 55%

Compound: Cn1cncc1[C@@](O)(COc1ccc(C#N)cc1-c1ccc(OC(F)(F)F)cc1)c1ccc(C#N)cc1
- % of control [4]: 38%
- % of control [5]: 6.2%
- % of control [6]: 6.1%
- % of control [7]: 12%
- % of control [8]: 6%
- % of control [9]: 3%

Compound: COc1ccc(Oc2cc(NCCC(F)(F)F)c3ncc(-c4ccc(C(=O)NC5CC5)c(C)c4)n3n2)c(F)c1F
- % of control [15]: 4%
- % of control [16]: 2%
- % of control [17]: 0%

Second part, the compound after the results:

- % of inhibition [10]: 36%
Compound: CCCOc1ccc([C@H]2[C@H](C(=O)O)[C@@H](c3ccc4c(c3)OCO4)CN2CC(=O)Nc2c(CC)cccc2CC)cc1

- % of control [11]: 46%
- % of control [12]: 59%
- % of control [13]: 45%
- % of control [14]: 31%
Compound: CSc1cccnc1N1CCN(Cc2nc3ccccc3[nH]2)CC1

- % of control [18]: 4.4%
- % of control [19]: 47%
- % of inhibition [20]: 63.2%
- % of inhibition [21]: 63.2%
Compound: CO[C@H]1CC[C@H](CNc2ccc(S(=O)(=O)NC(=O)c3ccc(N4CCN(CC5=C(c6ccc(Cl)cc6)CC(C)(C)CC5)CC4)cc3Oc3cnc4[nH]ccc4c3)cc2[N+](=O)[O-])CC1
